The source of these data is US8673913B2, “SHP-2 phosphatase inhibitor” (Case Western Reserve University, priority 2009, dated 2014).

Each structure is given as a SMILES string.

This assay deals with mouse embryonic fibroblasts, wildtype and SHP-2 E76K mutant. The assay can be described thus: cell proliferation assay, embryonic fibroblasts wildtype and SHP-2 E76K (MTS). It is filed as cell-based. The conditions noted are these: 48 hours. As for the experimental part: To test the effects of the active compounds on SHP-2-mediated cellular proliferation, Ba/F3, an IL-3 dependent hematopoietic cell line, mouse embryonic fibroblasts (MEFs), and H661 lung cancer cell line with SHP-2 activating mutation N58S were used for the assays. Cells were seeded into 96-well plates (2×10^4 cells/well) in the RPMI-1640 (for Ba/F3 cells) or DMEM (for MEFs and H661 cells) medium supplemented with 10% fetal bovine serum (FBS) and test compounds at various concentrations. For the Ba/F3 cell assay, recombinant mouse IL-3 (1 ng/mL) was included in the culture medium. Two days later, cell number was determined using the MTS cell proliferation kit (Promega Life Science, Madison, Wis.).
Mouse embryonic fibroblasts, wildtype and SHP-2 E76K mutant, were cultured in DMEM medium supplemented with active compounds at the indicated concentrations. DMSO was included at negative controls. Cell numbers were determined 48 hours later using the MTS assay. Shown are the results of a representative compound #324.

`Cc1cc(C)c2[nH]c3nc(SCC(=O)Nc4cccc5ccccc45)nnc3c2c1` [#324]: the “sensitivity of E76K fibroblasts versus wild type fibroblasts” value was “more sensitive”.
